The test system of this experiment is CEM cells HIV-1 protection, formazan growth assay. Put plainly: NCI AIDS Antiviral Assay. The note with it: for IC50: measured here: growth of uninfected CEM cells. A digest of the protocol: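 Five concentrations of each compound were applied to infected and uninfected human CEM cells. Protection from HIV-1 was judged from growth measured with a soluble formazan assay.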

Data on 29 compounds can be found in PubChem BioAssay AID179 (DTP/NCI, 2004).

Active and inactive are the calls of the source.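 Rule for the calls: active = compounds giving half or more protection of infected cells from virus-caused growth loss, again on retest; inactive = the rest.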

Broadly, the EC50 is the concentration at which the effect is half-maximal. In general, IC50 refers to the concentration that inhibits the measured activity by half. The low end stands for inhibition by little substance, the high end for a need for much substance. Take `CCOC(OC1=C(C#N)CCCC1)C(C)[Se]c1ccccc1` (configuration not stated): the EC50 was over 20 µM and the concentration for half-maximal inhibition (IC50) was over 20 µM.
In the case of `COc1cc(OC)c(/C=C\c2nccc3ccccc23)c(OC)c1`, the EC50 was over 200 µM and the IC50 was found to be 13.8 µM.
The matching figures for `C=C(C)C(=O)OC1CC2=CC(CC3(C)OC3C3OC(=O)C(=C)C13)OC2=O` (configuration not stated): over 200 µM and 2.4 µM.
Consider `O=C(CCCCCCCCCCc1ccccc1)C1=C(O)C(O)CCC1=O` (configuration not stated), for which the result was inactive.
In the case of `CCn1c(C)nc([N+](=O)[O-])c1Sc1ncc[nH]1`, the EC50 is over 977 µM and the half-inhibitory concentration (IC50) came to 17.8 µM.
In the case of `Cc1ccc(C2=Nc3ccccc3SC(c3cccc4c3OCO4)C2)cc1` (configuration not stated), the EC50 was over 14.1 µM and the IC50 was over 14.1 µM.
Regarding `CC1(c2nc3ccccc3[nH]2)CCC(C(N)=O)C(C)(C)O1` (configuration not stated), the EC50 was over 200 µM and the IC50 is over 200 µM.
Turning to `COc1ccc(C2Nc3cc(Cl)ccc3NC3=C2C(=O)CC(C)(C)C3)cc1` (configuration not stated), the EC50 is over 200 µM and the half-maximal inhibitory concentration (IC50) is 83.2 µM.
The matching figures for `COc1ccc(/C=C(/NC(=O)c2ccccc2)C(=O)Nc2ccccc2)cc1OC`: over 200 µM and over 200 µM.
Turning to `O=S1(=O)CCCCO1`, the outcome was inactive.
`c1ccc(P(CCP(CCP(c2ccccc2)c2ccccc2)c2ccccc2)CCP(c2ccccc2)c2ccccc2)cc1` (configuration not stated): the EC50 was over 10.7 µM and the IC50 is over 10.7 µM.
Turning to `COc1ccc2c(c1)OCCCN(C)OC2c1ccccc1` (configuration not stated), the outcome was inactive.
Take `COc1ccc(N2C(=O)/C(=C\c3cc(OC)c(OC)c(OC)c3)SC2c2ccccc2)cc1` (configuration not stated): the EC50 is over 200 µM and the concentration for half-maximal inhibition (IC50) is 51.3 µM.
The like results for `C/C(C=C(C#N)C#N)=C\c1ccc(C)cc1` were, in that order, over 1200 µM and over 1200 µM.
For the compound `COc1cc(C[C@H]2c3cc(OC)c(OC)cc3CCN2C)c(Oc2cc3c(cc2OC)-c2c(OC)c(OC)cc4c2[C@H](C3)N(C)CC4)cc1OC`, the outcome was inactive.
For `COC(=O)C1=C(C(=O)Nc2cccnc2Cl)N(c2ccc(OC)cc2[N+](=O)[O-])C(c2ccc(C)cc2)=CC1c1ccc(OC)cc1OC` (configuration not stated), the EC50 is over 100 µM and the IC50 came out at 1.95 µM.
The like results for `Cc1cc(N(CCC#N)CCC#N)ccc1N=Nc1ccc(C(=O)O)cc1` were, in that order, over 100 µM and over 100 µM.
On to `O=c1[nH]nc(-c2ccccc2)n1-n1cccc1`, for which the EC50 was over 200 µM and the half-maximal inhibitory concentration (IC50) was determined as 97.7 µM.
On to `O=c1cc2ccccc2nn1Cc1ccccc1Cl`, for which the EC50 is over 251 µM and the IC50 is over 251 µM.
As to `O=C1NNC=Nc2ccc(cc2)S(=O)(=O)c2ccc(cc2)N=CNNC1=O`, the EC50 was over 224 µM and the half-inhibitory concentration (IC50) was 162 µM.
Consider `O=C(O)C(=O)Cc1ccc(O)cc1`, for which the EC50 is over 200 µM and the IC50 was over 200 µM.
Take `O=C1CCC2(c3ccccc3)Nc3cc([N+](=O)[O-])ccc3N12` (configuration not stated): the EC50 is over 24.5 µM and the half-inhibitory concentration (IC50) is over 24.5 µM.
As to `CC(=O)Nc1c(S(=O)(=O)c2ccccc2)c(C)c(C)n1Cc1ccccc1`, the EC50 is over 200 µM and the half-maximal inhibitory concentration (IC50) turned out to be 132 µM.
With `O=c1onc2c3ccccc3ncn12`, the EC50 was over 200 µM and the half-inhibitory concentration (IC50) is over 200 µM.
As to `COc1cc(OC)c(/C=C/c2ccc3ccccc3[n+]2[O-])c(OC)c1`, the EC50 was over 56.2 µM and the IC50 was over 56.2 µM.
On to `Cc1ccc2cc([N+](=O)[O-])c3ccc(C)nc3c2n1`, for which the EC50 is over 200 µM and the IC50 amounted to 3.16 µM.
The matching figures for `COC1/C=C/OC2(C)Oc3c(C)c(O)c4c(O)c(c(C=NN5C(C)CN(Cc6ccc(Cl)cc6)CC5C)c(O)c4c3C2=O)NC(=O)/C(C)=C/C=C/C(C)C(O)C(C)C(O)C(C)C(OC(C)=O)C1C` (configuration not stated): over 200 µM and 6.17 µM.
In the case of `CC1(C)c2ccccc2C(C)(C)C(C(=O)Nc2ccccc2)C1C(=O)O` (configuration not stated), the outcome was inactive.
`COC(=O)C1=C(C(=O)OC)SC(C(C(=O)OC)=C2SC3=C(CCCC3)S2)S1`: the result was inactive.
